Tests used:
[1] = biological target: T1, ScMreB5 (Spiroplasma citri, UniProt Q8VQG1); assay: thermal shift (SYPRO Orange); format: binding; conditions: 2.6 µM protein, protein purified with ADP and MgCl2 added
T1 construct: gene mreB5; monomer about 38 kD, forms filaments
T1 sequence (Q8VQG1 1-352): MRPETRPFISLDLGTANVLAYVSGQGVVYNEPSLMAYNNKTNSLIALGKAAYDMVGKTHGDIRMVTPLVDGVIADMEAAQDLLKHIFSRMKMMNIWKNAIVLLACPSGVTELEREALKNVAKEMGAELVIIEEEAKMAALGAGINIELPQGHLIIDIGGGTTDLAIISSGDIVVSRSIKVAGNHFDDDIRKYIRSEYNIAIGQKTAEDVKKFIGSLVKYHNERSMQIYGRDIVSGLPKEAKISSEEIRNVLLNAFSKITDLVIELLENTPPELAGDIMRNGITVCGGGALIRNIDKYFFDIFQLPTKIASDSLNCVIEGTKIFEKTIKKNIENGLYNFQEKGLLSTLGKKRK

[2] = biological target: T1, ScMreB5; assay: X-ray crystal structure, […] Å; conditions: nucleotide-binding pocket; Mg2+ and K+ bound; 2 mM ADP, 2 mM MgCl2; ADP also co-purifies (HPLC)

For `Nc1ncnc2c1ncn2[C@@H]1O[C@H](COP(=O)(O)OP(=O)(O)OP(=O)(O)O)[C@@H](O)[C@H]1O` [ATP], the Tm ([1]; 1 mM ATP) was “increased stability in the KCl buffer and upon addition of excess ADP or ATP”.

`Nc1ncnc2c1ncn2[C@@H]1O[C@H](COP(=O)(O)OP(=O)(O)O)[C@@H](O)[C@H]1O` [ADP] was tested, and the Tm ([1]; 1 mM ADP) was “Thermal shift assays showed increased stability in the KCl buffer and upon addition of excess ADP” and the “X-ray crystal structure, 2.3 Å” value [2] was “ScMreB5 also crystallized in the presence of ADP (PDB accession no. 7BVZ)”.

From article PMC9195046, “Filament organization of the bacterial actin MreB is dependent on the nucleotide state” (The Journal of Cell Biology, 2022)
